{
  "source": "patent US9855270B2",
  "about": "“Methods and compositions for modulating estrogen receptor mutants” (priority 2014, dated 2018)",
  "key": {"[1]": {"system": "MCF-7 cells stably expressing EF1 HA-ER-α Y537N", "test": "cells", "type": "cell-based", "set-up": "Percent inhibition compared to vehicle: concentration or dose not given beside the values", "details": "EF1 HA-ER-α Y537N; for Percent inhibition compared to vehicle: 5-Day Incubation; for Efficacy (Emax): Day 5 relative to Day 0; for EC50: read-out: Potency (EC50; nM)", "excerpt": "(§1) MCF-7 Mutant ER-α Stable Cell Line Generation: MCF-7 cells stably expressing wild-type or ER-α mutants were generated by subcloning ESR1 wild-type and mutant cDNAs containing an amino terminal hemagglutinin tag into pCDH-EF1-MCS-(PGK-Puro) (referred to as EF1 HA-ER-α) and pCDH-UbC-MCS-EF1-Hygro (referred to as UbC HA-ER-α) (System Biosciences). The resulting plasmids, in addition to an empty vector negative control, were subsequently cotransfected into HEK293T cells with the pPACKH1 packaging plasmid mix (System Biosciences) according to the manufacturer's protocol. Four days post transfection lentiviral particles were purified from the cell medium, tiered and stored at −80° C. MCF-7 cells were transduced with the purified viral particles and stable cell lines were selected by growth in RPMI containing 10% FBS plus 1 μG/mL puromycin or 200 μG/mL hygromycin for pCDH-EF1-MCS-(PGK-Puro) and pCDH-UbC-MCS-EF1-Hygro, respectively.\n(§2) MCF-7 Stable Cell Line Viability: MCF-7 cells were enumerated with a hemacytometer adjusted to a concentration of 40,000 cells per mL in Phenol Free RPMI containing 10% CSS with NEAA and Sodium Pyruvate. 16 microliters of the cell suspension was added to each well of a 384 well tissue culture treated white clear bottom polystyrene plate (Corning) using a Matrix 16 channel electronic pipette. The cells were incubated overnight to allow the cells to adhere. The following day, 16 microliters of Phenol Free RPMI containing 10% CSS with NEAA and Sodium Pyruvate was added to the wells of one plate, followed by 16 μL of CellTiter-Glo (Promega, Madison Wis.) luminescent cell viability reagent using a Matrix 16 channel electronic pipette. […] The “average” of the relative luminescence units (RLUs) of the wells are considered to be the baseline value at time=zero. In addition, a 10 point, 1:5 serial dilution in DMSO (Sigma-Aldrich) was performed using Matrix 12 channel electronic pipette, including DMSO only as […]. 4 μL of each dilution was then added to 196 μL of RPMI containing 10% CSS with NEAA and Sodium Pyruvate. 16 μL of medium containing compound was added to the cells at a final concentration ranging from 10 μM to 5 pM. Compound dilution in media and subsequent addition to cells were carried out using Matrix 12 channel electronic pipettes. After 5 day compound exposure, 16 μL of CellTiter-Glo (Promega, Madison Wis.) luminescent cell viability reagent was added to the cells using a Matrix 16 channel electronic pipette. CellTiter-Glo added to 32 μL of medium without cells was used to obtain a background value. […] The relative luminescence units (RLUs) of each well were measured, and relative proliferation (fold) of each sample was determined as follows: (RLU sample−RLU background)/(RLU at T=0)=relative proliferation\n(§3) The UbC promoter is reported by the manufacturer (System Biosciences) to express low to moderate RNA levels while the EF1 promoter expresses high levels (System Biosciences)."}, "[2]": {"system": "MCF-7 cells stably expressing UbC HA-ER-α L536P", "test": "cells", "type": "cell-based", "set-up": "Percent inhibition compared to vehicle: concentration or dose not given beside the values", "excerpt": "as §1, §2, §3"}, "[3]": {"system": "MCF-7 cells stably expressing EF1 HA-ER-α L536P", "test": "cells", "type": "cell-based", "set-up": "Percent inhibition compared to vehicle: concentration or dose not given beside the values", "details": "EF1 HA-ER-α L536P; for Percent inhibition compared to vehicle: 5-Day Incubation; for Efficacy (Emax): Day 5 relative to Day 0; for EC50: read-out: Potency (EC50; nM)", "excerpt": "as §1, §2, §3"}, "[4]": {"system": "MCF-7 cells stably expressing UbC HA-ER-α wild-type", "test": "MCF-7 Stable Cell Line Viability (UbC HA-ER-α series)", "type": "cell-based", "set-up": "Percent inhibition compared to vehicle: concentration or dose not given beside the values", "details": "UbC HA-ER-α Wild-type; for Percent inhibition compared to vehicle: 5-Day Incubation; for Efficacy (Emax): Day 5 relative to Day 0; for EC50: read-out: Potency (EC50; nM)", "excerpt": "as §1, §2, §3"}, "[5]": {"system": "MCF-7 cells (negative control)", "test": "MCF-7 Stable Cell Line Viability (UbC HA-ER-α series)", "type": "cell-based", "set-up": "Percent inhibition compared to vehicle: concentration or dose not given beside the values", "details": "Receptor None (MCF-7 negative control)", "excerpt": "as §1, §2, §3"}, "[6]": {"system": "MCF-7 cells stably expressing EF1 HA-ER-α wild-type", "test": "MCF-7 Stable Cell Line Viability (EF1 HA-ER-α series)", "type": "cell-based", "set-up": "Percent inhibition compared to vehicle: concentration or dose not given beside the values", "details": "EF1 HA-ER-α Wild-type; for Percent inhibition compared to vehicle: 5-Day Incubation; for Efficacy (Emax): Day 5 relative to Day 0; for EC50: read-out: Potency (EC50; nM)", "excerpt": "as §1, §2, §3"}, "[7]": {"system": "MCF-7 cells transduced with an empty EF1 lentiviral vector (negative control)", "test": "MCF-7 Stable Cell Line Viability (EF1 HA-ER-α series)", "type": "cell-based", "set-up": "Percent inhibition compared to vehicle: concentration or dose not given beside the values", "details": "Receptor None (empty EF1 lentiviral vector); for Efficacy (Emax): Day 5 relative to Day 0; for EC50: read-out: Potency (EC50; nM)", "excerpt": "as §1, §2, §3"}, "[8]": {"system": "MCF-7 cells stably expressing ER-α mutants", "details": "UbC and EF1-derived lines; agonist mode", "description": "Potency and efficacy of ERM 1-3 were measured in vitro in ER dependent transcriptional reporter assays and viability assays of MCF-7 cells stably expressing ER-α mutants.\nas §1\nMCF-7 Stable Cell Line Viability: MCF-7 cells were enumerated with a hemacytometer adjusted to a concentration of 40,000 cells per mL in Phenol Free RPMI containing 10% CSS with NEAA and Sodium Pyruvate. 16 microliters of the cell suspension was added to each well of a 384 well tissue culture treated white clear bottom polystyrene plate (Corning) using a Matrix 16 channel electronic pipette. The cells were incubated overnight to allow the cells to adhere. […] The “average” of the relative luminescence units (RLUs) of the wells are considered to be the baseline value at time=zero. […] The relative luminescence units (RLUs) of each well were measured, and relative proliferation (fold) of each sample was determined as follows: (RLU sample−RLU background)/(RLU at T=0)=relative proliferation\nPotency and efficacy of ERM 4-23 were measured in vitro in ER dependent transcriptional reporter assays and viability assays of MCF-7 cells stably expressing ER-α mutants."}, "[9]": {"details": "Antagonist Mode, −E2 (Table 27)"}, "[10]": {"details": "Agonist Mode, −E2, 5-Day Incubation"}, "[11]": {"details": "Agonist Mode, −E2, Day 5 relative to Day 0"}, "[12]": {"details": "Agonist Mode, −E2, read-out: Potency (EC50; nM)"}, "[13]": {"details": "Antagonist Mode, +E2, 5-Day Incubation"}, "[14]": {"details": "Antagonist Mode, +E2, Day 5 relative to Day 0"}, "[15]": {"details": "Antagonist Mode, +E2, read-out: Potency (EC50; nM)"}},
  "note": "Read-outs that look alike come from different tables or passages of the source.",
  "data": [
    {"smiles": "CCC(=C(c1ccc(O)cc1)c1ccc(OCCN(C)C)cc1)c1ccccc1", "note": "[4-Hydroxytamoxifen]", "values": [
      {"measurement": "Percent inhibition compared to vehicle", "setting": "[1]; Agonist Mode, −E2", "result": 60, "unit": "%"},
      {"measurement": "Efficacy (Emax)", "setting": "[1]; Agonist Mode, −E2", "result": "2.43 ± 0.13"},
      {"measurement": "EC50", "setting": "[1]; Agonist Mode, −E2", "result": "6.04 ± 1.36", "unit": "nM"},
      {"measurement": "Percent inhibition compared to vehicle", "setting": "[1]; Antagonist Mode, +E2", "result": 57, "unit": "%"},
      {"measurement": "Efficacy (Emax)", "setting": "[1]; Antagonist Mode, +E2", "result": "2.39 ± 0.24"},
      {"measurement": "EC50", "setting": "[1]; Antagonist Mode, +E2", "result": "5.25 ± 2.84", "unit": "nM"},
      {"measurement": "EC50", "setting": "[1]; [9]", "result": "6.04 ± 1.36", "unit": "nM"},
      {"measurement": "Percent inhibition compared to vehicle", "setting": "[2]; [10]", "result": 35, "unit": "%"},
      {"measurement": "Efficacy (Emax)", "setting": "[2]; [11]", "result": "2.06 ± 0.19"},
      {"measurement": "EC50", "setting": "[2]; [12]", "result": "0.821 ± 0.726", "unit": "nM"},
      {"measurement": "Percent inhibition compared to vehicle", "setting": "[2]; [13]", "result": 61, "unit": "%"},
      {"measurement": "Efficacy (Emax)", "setting": "[2]; [14]", "result": "2.31 ± 0.27"},
      {"measurement": "EC50", "setting": "[2]; [15]", "result": "2.13 ± 4.68", "unit": "nM"},
      {"measurement": "Percent inhibition compared to vehicle", "setting": "[3]; Agonist Mode, −E2", "result": 58, "unit": "%"},
      {"measurement": "Efficacy (Emax)", "setting": "[3]; Agonist Mode, −E2", "result": "3.47 ± 0.03"},
      {"measurement": "EC50", "setting": "[3]; Agonist Mode, −E2", "result": "4.39 ± 0.723", "unit": "nM"},
      {"measurement": "Percent inhibition compared to vehicle", "setting": "[3]; Antagonist Mode, +E2", "result": 60, "unit": "%"},
      {"measurement": "Efficacy (Emax)", "setting": "[3]; Antagonist Mode, +E2", "result": "3.64 ± 0.26"},
      {"measurement": "EC50", "setting": "[3]; Antagonist Mode, +E2", "result": "9.22 ± 0.546", "unit": "nM"},
      {"measurement": "EC50", "setting": "[3]; [9]", "result": "4.39 ± 0.723", "unit": "nM"},
      {"measurement": "Percent inhibition compared to vehicle", "setting": "[4]; Agonist Mode, −E2", "result": 14, "unit": "%"},
      {"measurement": "Efficacy (Emax)", "setting": "[4]; Agonist Mode, −E2", "result": "1.58 ± 0.16"},
      {"measurement": "EC50", "setting": "[4]; Agonist Mode, −E2", "result": "0.626 ± 0.528", "unit": "nM"},
      {"measurement": "Percent inhibition compared to vehicle", "setting": "[4]; Antagonist Mode, +E2", "result": 68, "unit": "%"},
      {"measurement": "Efficacy (Emax)", "setting": "[4]; Antagonist Mode, +E2", "result": "1.57 ± 0.08"},
      {"measurement": "EC50", "setting": "[4]; Antagonist Mode, +E2", "result": "2.95 ± 2.51", "unit": "nM"},
      {"measurement": "Percent inhibition compared to vehicle", "setting": "[5]; [10]", "result": 19, "unit": "%"},
      {"measurement": "Efficacy (Emax)", "setting": "[5]; [11]", "result": "1.42 ± 0.43"},
      {"measurement": "EC50", "setting": "[5]; [12]", "result": "263 ± 525", "unit": "nM"},
      {"measurement": "Percent inhibition compared to vehicle", "setting": "[5]; [13]", "result": 58, "unit": "%"},
      {"measurement": "Efficacy (Emax)", "setting": "[5]; [14]", "result": "1.34 ± 0.07"},
      {"measurement": "EC50", "setting": "[5]; [15]", "result": "2.47 ± 1.78", "unit": "nM"},
      {"measurement": "Percent inhibition compared to vehicle", "setting": "[6]; Agonist Mode, −E2", "result": 30, "unit": "%"},
      {"measurement": "Efficacy (Emax)", "setting": "[6]; Agonist Mode, −E2", "result": "3.99 ± 0.38"},
      {"measurement": "EC50", "setting": "[6]; Agonist Mode, −E2", "result": "0.186 ± 0.04", "unit": "nM"},
      {"measurement": "Percent inhibition compared to vehicle", "setting": "[6]; Antagonist Mode, +E2", "result": 40, "unit": "%"},
      {"measurement": "Efficacy (Emax)", "setting": "[6]; Antagonist Mode, +E2", "result": "4.05 ± 0.36"},
      {"measurement": "EC50", "setting": "[6]; Antagonist Mode, +E2", "result": "5.16 ± 0.137", "unit": "nM"},
      {"measurement": "EC50", "setting": "[6]; [9]", "result": "0.186 ± 0.04", "unit": "nM"},
      {"measurement": "Efficacy (Emax)", "setting": "[7]; Agonist Mode, −E2", "result": "1.49 ± 0.06"},
      {"measurement": "EC50", "setting": "[7]; Agonist Mode, −E2", "result": "0.531 ± 0.381", "unit": "nM"},
      {"measurement": "Percent inhibition compared to vehicle", "setting": "[7]; [13]", "result": 60, "unit": "%"},
      {"measurement": "Efficacy (Emax)", "setting": "[7]; Antagonist Mode, +E2", "result": "1.60 ± 0.08"},
      {"measurement": "EC50", "setting": "[7]; Antagonist Mode, +E2", "result": "2.32 ± 0.599", "unit": "nM"},
      {"measurement": "EC50", "setting": "[7]; [9]", "result": "0.531 ± 0.381", "unit": "nM"},
      {"measurement": "efficacy compared with fulvestrant and ERM 4-23 (in words)", "setting": "[8]", "result": "reduced efficacy on all the mutations tested"}
    ]}
  ]
}
